# Key:
# Assay in all cases: relative viability (nuclei count vs DMSO), 5 days (fraction); higher = more cells survive
# [1] = compound: C[C@@H](N)c1ccc(C(=O)Nc2ccnc3[nH]ccc23)cc1 + CS(=O)(=O)N1CCN(Cc2cc3nc(-c4cccc5[nH]ncc45)nc(N4CCOCC4)c3s2)CC1 [Pictilisib] (partner 1 µM)
# In short: (§1)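 Nuclei were stained with Hoechst during a one-step fixation (final 0.05% Triton X-100, 1% formaldehyde, 1 ug/ml Hoechst) carried out 5 days after dosing, then counted on 4× images. The cells, lung cancer lines in 1536-well plates, had been dosed by pin tool the day after seeding with one drug alone or a fixed anchor-drug dose plus five library-drug doses (not always all listed) in √10 steps. Relative viability is the nuclei count in treated wells divided by that in vehicle wells, and each value is the median of duplicate plates.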
# [2] = compound: C[C@@H](N)c1ccc(C(=O)Nc2ccnc3[nH]ccc23)cc1 + COc1cc2c(Oc3ccc(NC(=O)C4(C(=O)Nc5ccc(F)cc5)CC4)cc3F)ccnc2cc1OCCCN1CCOCC1 [Foretinib] (partner 0.25 µM)
# In short: as §1
# Tanzisertib + Alpelisib = compound: O[C@H]1CC[C@H](Nc2ncc3nc(Nc4c(F)cc(F)cc4F)n([C@H]4CCOC4)c3n2)CC1 [Tanzisertib] + Cc1nc(NC(=O)N2CCC[C@H]2C(N)=O)sc1-c1ccnc(C(C)(C)C(F)(F)F)c1 [Alpelisib] (partner 2 µM)
# In short: as §1
# [3] = compound: C1CNCCC1C2=CC(=NN2)C3=CC=NC=C3 + Nc1nc2[nH]cc(CCc3ccc(C(=O)N[C@@H](CCC(=O)O)C(=O)O)cc3)c2c(=O)[nH]1 [Pemetrexed] (partner 0.2 µM)
# In short: as §1
Cell Line,relative viability ([1]; first compound 0.04 µM),relative viability ([1]; first compound 0.1265 µM),relative viability ([1]; first compound 0.4 µM),relative viability ([1]; first compound 1.265 µM),relative viability ([1]; first compound 4 µM),relative viability ([2]; first compound 0.04 µM),relative viability ([2]; first compound 0.1265 µM),relative viability ([2]; first compound 0.4 µM),relative viability ([2]; first compound 1.265 µM),relative viability ([2]; first compound 4 µM),relative viability (Tanzisertib + Alpelisib; first compound 0.08 µM),relative viability (Tanzisertib + Alpelisib; first compound 0.253 µM),relative viability (Tanzisertib + Alpelisib; first compound 0.8 µM),relative viability (Tanzisertib + Alpelisib; first compound 2.53 µM),relative viability (Tanzisertib + Alpelisib; first compound 8 µM),relative viability ([3]; first compound 0.08 µM),relative viability ([3]; first compound 0.8 µM),relative viability ([3]; first compound 2.53 µM),relative viability ([3]; first compound 8 µM)
NCI-H1755,0.418,0.487,0.517,0.382,0.364,0.95,0.96,0.901,0.903,0.664,1.05,0.897,0.918,0.84,0.852,0.475,0.439,0.433,0.329
NCI-H1793,0.251,0.437,0.327,,0.402,0.692,0.829,0.946,,0.83,0.842,0.532,0.754,0.754,0.733,0.805,,0.929,0.974
NCI-H1915,1.15,0.92,0.925,,0.837,1.17,1.11,1.12,,0.984,1.15,1.05,1.06,1.04,1.04,0.579,0.502,0.525,0.471
NCI-H1944,0.398,0.339,0.337,,0.345,0.98,0.975,0.985,0.822,0.557,0.876,0.822,0.822,0.789,0.758,0.564,0.595,0.67,0.557
NCI-H1975,0.281,0.281,0.287,0.228,0.236,1.06,0.854,0.847,0.681,0.653,0.676,0.715,0.719,0.653,0.585,0.313,0.307,0.303,0.29
NCI-H1993,0.801,0.865,,0.812,0.833,0.785,0.732,0.781,0.924,0.714,0.661,0.663,0.524,0.693,0.699,0.607,0.342,0.535,0.689
NCI-H2009,0.77,0.768,0.886,0.22,0.753,1.2,1.14,1.11,1.02,0.868,1.24,1.2,1.14,1.19,1.17,0.958,1.05,0.992,1.03
NCI-H2023,0.283,0.26,0.403,0.139,0.301,0.965,1.14,1.4,0.988,0.766,0.671,0.577,0.627,0.584,0.545,0.206,0.222,0.224,0.241
NCI-H2085,0.6,0.63,0.581,0.704,0.606,1.03,0.989,0.918,0.901,0.79,0.997,0.96,0.966,0.948,1.01,1.1,,0.96,0.969
NCI-H2087,1.04,0.78,0.908,0.153,0.797,1.16,1.07,1.1,,0.983,1.27,1.22,1.24,1.11,1.32,0.722,0.679,0.635,0.666
NCI-H2126,0.632,0.494,0.55,0.349,0.6,1.2,1.13,1.29,,1.09,0.775,0.749,0.749,0.725,0.736,0.643,0.625,0.694,0.728
NCI-H2170,0.337,0.319,0.295,0.204,0.266,1.02,1,0.936,0.922,0.937,0.98,0.787,0.796,0.779,0.809,0.269,0.283,0.288,0.266
NCI-H2228,0.441,0.503,0.335,0.319,0.491,1.03,0.743,1.02,0.911,0.866,0.934,0.67,0.806,0.737,0.539,0.31,0.373,0.384,0.356
NCI-H2347,0.472,0.667,0.727,0.832,0.796,1.17,0.964,1.22,,1.32,1.17,1.04,1.1,1.16,1.11,0.441,0.409,0.422,0.422
NCI-H2405,,0.433,0.399,0.194,0.207,1.12,1.09,1.13,0.838,0.519,0.933,0.696,0.805,0.83,0.547,1.05,1.1,1.11,1
NCI-H3122,0.72,0.721,0.716,0.687,0.728,0.943,1.03,0.952,0.98,0.897,0.965,0.735,0.844,0.731,0.782,0.193,0.212,0.197,0.202
PC-3 [JPC-3],0.741,0.784,0.788,0.632,0.683,1.05,0.996,1.09,0.982,0.936,1.05,1.07,1.12,1.03,0.972,0.966,1.22,1.15,0.998

# Source: the supplement of paper PMC10307832
